Earlier results in US20100104634A1, “PHARMACEUTICAL COMPOSITIONS OF ENTACAPONE” (priority 2006, published 2010).

Conditions: low solubility, low dissolution rate, low bioavailability

Biopharmaceutics Classification system (BCS) class: class IV
Compound: CCN(CC)C(=O)/C(C#N)=C/c1cc(O)c(O)c([N+](=O)[O-])c1 [Entacapone, (E)-2-cyano-3-(3,4-dihydroxy-5-nitrophenyl)-N,N-diethyl-2-propenamide]
